According to patent US20140357512A1, “HISTONE DEACETYLASE (HDAC) BIOMARKERS IN MULTIPLE MYELOMA” (priority 2013, published 2014):

Test system: human myeloma cell line MM.1S
Test: SILAC acetylated-lysine peptide profiling, HDAC inhibitor vs DMSO (light/heavy ratio)
Format: cell-based
Excerpt: An embodiment of the invention comprises utilizing the SILAC method in order to quantitate changes in protein expression between two or more populations of cells. The SILAC method is a technique based on mass spectrometry that detects differences in protein abundance among samples using non-radioactive isotopic labeling. The SILAC method is known in the art, and described in detail in Ong et al., “Stable Isotope Labeling by Amino Acids in Cell Culture, SILAC, as a Simple and Accurate Approach to Expression Proteomics”, Molecular & Cellular Proteomics, vol. 1, pp. 376-386 (2002), which is incorporated herein by reference in its entirety.
Briefly, the SILAC method involves growing two populations of cells in cell culture. The first population of cells is grown in growth media containing normal amino acids (“normal media”). The second population of cells is grown in media lacking a standard essential amino acid (such as lysine), but is then supplemented with a non-radioactive, isotopically labeled form of that essential amino acid (such as lysine labeled with ^13C atoms, rather than normal ^12C atoms), which is called “heavy media”. When the two populations of cells are each growing in the medium, they incorporate the amino acids into all of their proteins. The growth of cells maintained in the heavy media is no different from that in normal media. All peptides containing the heavy amino acids are heavier than their normal counterparts. The cells from each of the two populations of cells are lysed. The lysates from each of the two cell populations are then combined. The combined cell lysates are then analyzed by mass spectrometry. Pairs of chemically identical peptides of different stable isotope composition can be differentiated in a mass spectrometer due to their difference in mass. The ratio of peak intensities in the mass spectrum for such peptide pairs reflects the abundance ratio for the two proteins.
This example describes SILAC studies that were performed to compare the effects of three different HDAC inhibitors (Compound A, Compound B, and tubastatin A) to a control on a human multiple myeloma cell line. The HDAC inhibitors were also compared amongst themselves to determine differences in their effects.
A human myeloma cell line MM.1S was grown using either ^12C (light) or ^13C (heavy) lysine containing culture medium. The “heavy” cells were treated with DMSO as the control, and the “light” cells were treated with a single HDAC inhibitor at 37° C. for 6 hours. The heavy and light cells were lysed, and the lysates were mixed in 1:1 ratio and digested with the protease trypsin. The acetylated lysine containing peptides (due to the action of the HDAC inhibitor) in the digested peptide pool were captured by a non-specific anti-acetylated lysine antibody cocktail (the antibodies identify both light and heavy acetylated peptides), and subjected to mass spectrometry analysis in order to identify thousands of individual peptides.
Thousands of peptides were identified in pairs (^12C and ^13C) due to their known mass differences. The amino acid sequence and quantitative ratio (Light/Heavy) of a given peptide in two differentially treated cell lysates were then determined and annotated with their possible protein (gene) sources.
As stated above, three HDAC inhibitors (Compound A, Compound B, and Tubastatin A) were used. Thus, the SILAC method was performed three times, with a different HDAC inhibitor compared to a control each time. Accordingly, there are three pairs of quantitative data in the table below, i.e., Compound A:DMSO, Compound B:DMSO, and Tubastatin A:DMSO. A cut-off of 1.30 fold of change (increase or decrease) was then used to determine “changed” or “+” in the table, and any peptides with a fold of change less than 1.3 fold were determined to be “unchanged” or “0” in the table. Those peptides that were not identified were marked as “NA” in the table. […]

## O=C(CCCCCCNC(=O)c1cnc(N(c2ccccc2)c2ccccc2)nc1)NO [Compound A, 2-(diphenylamino)-N-(7-(hydroxyamino)-7-oxoheptyl)pyrimidine-5-carboxamide]
Prohibitin [202], PHB, drug:DMSO
  light to heavy ratio (L/H ratio) of acetylated peptide FVVEK(ac)AEQQK (SEQ ID NO: 263): 0.42 log 2
Proteasomal ubiquitin receptor ADRM1 [97], gene ADRM1, inhibitor:DMSO
  light to heavy ratio (L/H ratio) of acetylated peptide VYVLK(ac)FK (SEQ ID NO: 520): −0.50 log 2
Protein ERGIC-53 [49], LMAN1, drug:DMSO
  light to heavy ratio (L/H ratio) of acetylated peptide FEYK(ac)YSFK (SEQ ID NO: 340): 0.00 log 2
Protein FAM3C [72], gene FAM3C, inhibitor:DMSO
  light to heavy ratio (L/H ratio) of acetylated peptide HFAFK(ac)[…] (SEQ ID NO: 554): 0.40 log 2
Protein Jade-3 [735], gene PHF16, drug:DMSO
  light to heavy ratio (L/H ratio), log 2 scale, acetylated peptide […](ac)PTK (SEQ ID NO: 804): 1.00
Protein disulfide-isomerase A4 [109], gene PDIA4, drug:DMSO
  light to heavy ratio (L/H ratio), log 2 scale, acetylated peptide IANILK(ac)[…] (SEQ ID NO: 803): 1.00
Protein disulfide-isomerase [103], gene P4HB, inhibitor:DMSO
  light to heavy ratio (L/H ratio) of acetylated peptide GYPTIK(ac)FFR (SEQ ID NO: 541): 0.39 log 2
Protein disulfide-isomerase [263], P4HB, drug:DMSO
  light to heavy ratio (L/H ratio) of acetylated peptide THILLFLPK(ac)SVSDYDGK (SEQ ID NO: 297): 0.75 log 2
Protein disulfide-isomerase [375], P4HB, drug:DMSO
  light to heavy ratio (L/H ratio) of acetylated peptide VLVGK(ac)[…] (SEQ ID NO: 303): 0.99 log 2
Protein disulfide-isomerase [385], P4HB, drug:DMSO
  light to heavy ratio (L/H ratio) of acetylated peptide […](ac)K (SEQ ID NO: 286): 0.62 log 2
Putative annexin A2-like protein [148], gene ANXA2P2, drug:DMSO
  light to heavy ratio (L/H ratio), log 2 scale, acetylated peptide VYK(ac)EMYK (SEQ ID NO: 777): 1.00
Putative annexin A2-like protein [227], gene ANXA2P2, drug:DMSO
  light to heavy ratio (L/H ratio), log 2 scale, acetylated peptide SVPHLQK(ac)VFDR (SEQ ID NO: 776): 1.00
Putative annexin A2-like protein [302], ANXA2P2, drug:DMSO
  light to heavy ratio (L/H ratio) of acetylated peptide SEVDMLK(ac)IR (SEQ ID NO: 295): 0.71 log 2
Pyruvate dehydrogenase E1 component subunit alpha testis-specific form mitochondrial [75], PDHA2, drug:DMSO
  light to heavy ratio (L/H ratio) of acetylated peptide RMELK(ac)ADQLYK (SEQ ID NO: 275): 0.51 log 2
RAC2 [153], log 2 scale, drug vs DMSO
  L/H ratio of acetylated peptide EIDSVK(ac)[…] (SEQ ID NO: 73): 0.00
RBBP4 [4], log 2 scale, drug vs DMSO
  L/H ratio of acetylated peptide (ac)ADK(ac)[…] (SEQ ID NO: 74): 0.00
RBM17 [391], log 2 scale, drug vs DMSO
  L/H ratio of acetylated peptide ACFYNLDK(ac)FR (SEQ ID NO: 75): 0.00
RCC1 [366], log 2 scale, drug vs DMSO
  L/H ratio of acetylated peptide […](ac)SIPTLISR (SEQ ID NO: 76): 0.00
RPL3L [373], log 2 scale, drug vs DMSO
  L/H ratio of acetylated peptide FIDTTSK(ac)FGHGR (SEQ ID NO: 83): 0.00
RPL4 [239], log 2 scale, drug vs DMSO
  L/H ratio of acetylated peptide LNILK(ac)LAPGGHVGR (SEQ ID NO: 85): 0.00
RPL4 [274], log 2 scale, drug vs DMSO
  L/H ratio of acetylated peptide AASLK(ac)SNYNLPMHK (SEQ ID NO: 84): 0.00
RPL9 [121], log 2 scale, drug vs DMSO
  L/H ratio of acetylated peptide NFLGEK(ac)YIR (SEQ ID NO: 86): 0.00
RPL11 [154], log 2 scale, drug vs DMSO
  L/H ratio of acetylated peptide TGCIGAK(ac)HR (SEQ ID NO: 77): 0.00
RPL11 [169], log 2 scale, drug vs DMSO
  L/H ratio of acetylated peptide WFQQK(ac)YDGIILPGK (SEQ ID NO: 78): 0.00
RPL18A [41], log 2 scale, drug vs DMSO
  L/H ratio of acetylated peptide […](ac)SR (SEQ ID NO: 79): 0.00
RPL21, SNORD102, SNORA27, RPL21P19 [97], log 2 scale, drug vs DMSO
  L/H ratio of acetylated peptide IEHIK(ac)HSK (SEQ ID NO: 80): 0.00
RPL22 [84], log 2 scale, drug vs DMSO
  L/H ratio of acetylated peptide YLK(ac)YLTK (SEQ ID NO: 81): 0.00
RPL27A [47], log 2 scale, drug vs DMSO
  L/H ratio of acetylated peptide INFDK(ac)YHPGYFGK (SEQ ID NO: 82): 0.00
RPPQTIK(ac)SVR (SEQ ID NO: 492), GDP-D-glucose phosphorylase C15orf58 [113], C15orf58
  L/H ratio of acetylated peptide: −1.00 log 2
RPS4X [53], log 2 scale, drug vs DMSO
  L/H ratio of acetylated peptide LK(ac)[…] (SEQ ID NO: 89): 0.00
RPS7 [74], log 2 scale, drug vs DMSO
  L/H ratio of acetylated peptide SFQK(ac)IQVR (SEQ ID NO: 90): 0.00
RPS9 [66], log 2 scale, drug vs DMSO
  L/H ratio of acetylated peptide ELLTLDEK(ac)DPR (SEQ ID NO: 91): 0.00
RPS9 [116], log 2 scale, drug vs DMSO
  L/H ratio of acetylated peptide LQTQVFK(ac)LGLAK (SEQ ID NO: 92): 0.00
RPS23 [135], log 2 scale, drug vs DMSO
  L/H ratio of acetylated peptide […](ac)GK (SEQ ID NO: 87): 0.00
RPS27A [104], log 2 scale, drug vs DMSO
  L/H ratio of acetylated peptide LAVLK(ac)YYK (SEQ ID NO: 88): 0.00
Ribosomal L1 domain-containing protein 1 [120], gene RSL1D1, inhibitor:DMSO
  light to heavy ratio (L/H ratio) of acetylated peptide LLNK(ac)HGIK (SEQ ID NO: 528): −0.43 log 2
